Assay results published in US10842806B2, “Methods for treating ocular inflammatory disorders” (Massachusetts Eye and Ear Infirmary, priority 2011, dated 2020).

How the values were obtained:
[1] = tested on: endotoxin-induced uveitis (EIU); assay: Histopathologic evaluation of EIU eyes (iris-ciliary body); format: in vivo, Lewis rats; conditions: AICAR 50 mg/kg pretreatment, 24 h after LPS
Description: Male Lewis rats ranging from 6-8 weeks old (Charles River, Wilmington, Mass.) were used for these studies. To study the effects of AICAR pretreatment, AICAR and PBS (for placebo treatment) were delivered via intraperitoneal injection of AICAR (50 mg/kg or 100 mg/kg body weight; Sigma) diluted in 150 μl PBS or equal volume of PBS at 6 hours before and at the same time as LPS injection. Four experimental groups of rats were compared: (1) Normal: no treatment (2) AICAR: normal rats treated with AICAR 6 hours before examination; (3) LPS: EIU rats treated with PBS; (4) LPS+AICAR: EIU rats treated with AICAR. Two additional groups of rats were used to study the effects of AICAR (50 mg/kg) given either at the same time as LPS injection or at 6 hours after LPS injection. For histopathologic evaluations, EIU rats were euthanized 24 hours after LPS injection. The eyes were enucleated immediately and stored in 10% formalin solution. The eyes were then embedded in paraffin, and 10 μm sagittal sections were cut and stained with hematoxylin and eosin. For histopathologic evaluation, the anterior chamber and posterior chamber around the iris-ciliary body complex were examined with light microscopy.

TNF-α = TNF-α ELISA in aqueous humor, retina and serum of EIU rats; format: in vivo, Lewis rats; conditions: LPS + AICAR
Description: Male Lewis rats ranging from 6-8 weeks old (Charles River, Wilmington, Mass.) were used for these studies. To study the effects of AICAR pretreatment, AICAR and PBS (for placebo treatment) were delivered via intraperitoneal injection of AICAR (50 mg/kg or 100 mg/kg body weight; Sigma) diluted in 150 μl PBS or equal volume of PBS at 6 hours before and at the same time as LPS injection. Four experimental groups of rats were compared: (1) Normal: no treatment (2) AICAR: normal rats treated with AICAR 6 hours before examination; (3) LPS: EIU rats treated with PBS; (4) LPS+AICAR: EIU rats treated with AICAR. Two additional groups of rats were used to study the effects of AICAR (50 mg/kg) given either at the same time as LPS injection or at 6 hours after LPS injection. Under deep anesthesia, experimental rats were sacrificed and the retinas were carefully removed 24 hours after LPS injection, placed into 200 μl of lysis buffer and then sonicated. The lysate was centrifuged at 13,000 rpm for 10 minutes at 4° C. and supernatant was isolated. […] Cytokine and chemokine levels in the serum, aqueous humor, and retina were assessed using the rat CCL2/MCP-1 kit (Invitrogen, Camarillo, Calif.), the rat TNF-α kit (R&D system, Minneapolis, Minn.) and the rat ICAM-1 kit (R&D systems) by ELISA.

[2] = tested on: TNF-α, IL-6 and IFN-γ in the retina; assay: Retinal cytokine mRNA (real-time PCR) and protein (ELISA) in EAU mice; format: in vivo, C57BL/6 (WT) mice
[3] = tested on: experimental autoimmune uveitis (EAU); assay: Clinical scoring of EAU by funduscopic examination; format: in vivo, C57BL/6 (WT) mice
ICAM-1 = ICAM-1 ELISA in aqueous humor, retina and serum of EIU rats; format: in vivo, Lewis rats; conditions: LPS + AICAR
Description: Male Lewis rats ranging from 6-8 weeks old (Charles River, Wilmington, Mass.) were used for these studies. To study the effects of AICAR pretreatment, AICAR and PBS (for placebo treatment) were delivered via intraperitoneal injection of AICAR (50 mg/kg or 100 mg/kg body weight; Sigma) diluted in 150 μl PBS or equal volume of PBS at 6 hours before and at the same time as LPS injection. Four experimental groups of rats were compared: (1) Normal: no treatment (2) AICAR: normal rats treated with AICAR 6 hours before examination; (3) LPS: EIU rats treated with PBS; (4) LPS+AICAR: EIU rats treated with AICAR. Two additional groups of rats were used to study the effects of AICAR (50 mg/kg) given either at the same time as LPS injection or at 6 hours after LPS injection. Under deep anesthesia, experimental rats were sacrificed and the retinas were carefully removed 24 hours after LPS injection, placed into 200 μl of lysis buffer and then sonicated. The lysate was centrifuged at 13,000 rpm for 10 minutes at 4° C. and supernatant was isolated. Three hours after LPS injection, blood samples were collected from the heart and subsequently centrifuged at 3000 rpm for 30 minutes at 4° C., and serum samples were separated. Cytokine and chemokine levels in the serum, aqueous humor, and retina were assessed using the rat CCL2/MCP-1 kit (Invitrogen, Camarillo, Calif.), the rat TNF-α kit (R&D system, Minneapolis, Minn.) and the rat ICAM-1 kit (R&D systems) by ELISA.

CD14 = CD14 mRNA (real time PCR) and protein (Western blot) in PBMC of EIU rats; format: in vivo, Lewis rats; conditions: three hours after LPS
Description: Male Lewis rats ranging from 6-8 weeks old (Charles River, Wilmington, Mass.) were used for these studies. To study the effects of AICAR pretreatment, AICAR and PBS (for placebo treatment) were delivered via intraperitoneal injection of AICAR (50 mg/kg or 100 mg/kg body weight; Sigma) diluted in 150 μl PBS or equal volume of PBS at 6 hours before and at the same time as LPS injection. Four experimental groups of rats were compared: (1) Normal: no treatment (2) AICAR: normal rats treated with AICAR 6 hours before examination; (3) LPS: EIU rats treated with PBS; (4) LPS+AICAR: EIU rats treated with AICAR. Two additional groups of rats were used to study the effects of AICAR (50 mg/kg) given either at the same time as LPS injection or at 6 hours after LPS injection. For preparation of peripheral blood mononuclear cell (PBMC) samples, blood samples were collected at three hours after LPS injection, and PBMC samples were isolated by density gradient centrifugation with Histopaque 1083 (Sigma). The red blood cells were lysed with Red Blood Cell Lysing Buffer (Sigma). For Western blot analysis, pooled PBMCs from three rats were homogenized with lysis buffer (Roche Diagnostics Corp) and centrifuged at 13,000 rpm for 10 minutes at 4° C. […] Quantitative expression data were acquired and analyzed with a Step One Plus real-time PCR system (Applied Biosystems).

[4] = AICAR 200 mg/kg treated EAU mice vs control EAU mice

NC(=O)c1ncn([C@@H]2O[C@H](CO)[C@@H](O)[C@H]2O)c1N [AICAR, 5-aminoimidazole-4-carboxamide-1-β-d-ribofuranoside]
Number of leukocytes infiltrated around the iris-ciliary body (histopathology) [1]: suppressed
TNF-α in serum (TNF-α; 3 hours after LPS, n=11, LPS 147.2 ± 337.1, p 0.475): 57.8 ± 143.1 pg/mL
TNF-α in aqueous humor (TNF-α; 24 h after LPS, n=12, LPS 277.8 ± 123.9): 92.5 ± 140.5 pg/mL
IFN-γ mRNA in retina [2, 4]: significantly reduced
IL-6 mRNA in retina [2, 4]: significantly reduced
TNF-α mRNA in retina [2, 4]: significantly reduced
IL-6 protein level in retina ([2]; AICAR 200 mg/kg treated EAU mice, 21 days after immunization, ELISA): suppressed
EAU mean clinical score ([3]; AICAR 200 mg/kg i.p. daily day 0 to 21, day 21, scale 0-4, n=15, control 2.6±0.70): 1.32±0.95
Clinical inflammation on fundus examination ([3]; AICAR 100 or 200 mg/kg daily, dose-dependent manner): suppressed
EAU mean clinical score, effector phase treatment ([3]; AICAR administered from day 8 to 21 after immunization, n=8, controls 2.44±0.56): 1.50±0.86
ICAM-1 in serum (ICAM-1; 3 hours after LPS, n=11, LPS 28.7 ± 8.1): 21.6 ± 5.0 ng/mL
ICAM-1 in aqueous humor (ICAM-1; 24 h after LPS, n=12, LPS 8.7 ± 4.4): 4.4 ± 3.3 ng/mL
ICAM-1 in retina (ICAM-1; 24 h after LPS, n=14, LPS 316.4 ± 132.3): 202.9 ± 113.4 pg/total retinal protein
CD14 mRNA expression in PBMCs (CD14; AICAR pretreatment, n=9, EIU 3.8±0.7, normal 0.7±0.3): 1.7±1.0
CD14 protein expression in PBMCs (Western blot) (CD14; AICAR-pretreated rats vs EIU rats): decreased
